# Values of other authors as cited in US20160286792A1, “METHOD AND SYSTEM FOR PEST CONTROL” (priority 2013, published 2016).
# Read-outs that look alike come from different tables or passages of the source.
# Legend:
# [1] = aqueous, at 25 degrees
compound,measurement,setting,value
"CCOP(=S)(OCC)Oc1nc(Cl)c(Cl)cc1Cl [chlorpyrifos, Chlorpyrifos]",length of protection,termites; concentration varies depending on the brand,up to 5 years
Cc1c(COC(=O)[C@@H]2[C@H](/C=C(\Cl)C(F)(F)F)C2(C)C)cccc1-c1ccccc1 (racemic) [Bifenthrin],length of protection,termites; applied at 0.05% concentration,10 years
same,length of protection,termites; applied at 0.1% concentration,at least 10 years
same,length of protection,termites; applied at 0.25% concentration,3 years
O=[N+]([O-])NC1=NCCN1Cc1ccc(Cl)nc1 [Imidacloprid],length of protection,termites; applied at 0.25% concentration,up to 3 years
same,toxicity to humans,humans,low to medium toxicity
calcium sulphate dihydrate [gypsum],concentration of saturated solution,[1],2000 to 2500 µg/mL
